According to ChEMBL document CHEMBL3132839, “Discovery of BET bromodomain inhibitors and their role in target validation” (Medchemcomm, 2014):

Target: Bromodomain-containing protein 4 (Homo sapiens, UniProt O60885)
Assay: Inhibition of BRD4(1) (unknown origin) by Alpha screen binding assay

| IC50 | Compound |
| --- | --- |
| 7 mM | CNC(=O)[C@H](CCCCNC(C)=O)NC |
| 280 mM | C[S+](C)[O-] [DIMETHYL SULFOXIDE] |
